# Assay results as given in patent US12071425B2 (Genentech, Inc., priority 2018, dated 2024).
# Where a name gives a salt, the structure may show the parent alone.
# Target: kinase domain of IRE1 alpha (His-tagged kinase dead construct KR, AA G547-L977, D688N) (Homo sapiens (Human), UniProt O75460, D688N)
# Experiment: IRE1α TR-FRET competition binding assay
# Settings: competition with Kinase Tracer 236, 0.1 μM; one hour at room temperature
# Summary of the method: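 Compound displacement of an ATP-site fluorescent tracer (0.1 μM final) measured by TR-FRET after 1 h at room temperature. Protein, a His-tagged D688N kinase/RNase construct from Sf9 cells (0.006 μM final), was pre-bound 1 h at 4° C to Eu anti-His antibody (0.002 μM) in pH 7.5 HEPES buffer.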
# Sequence of kinase domain of IRE1 alpha (His-tagged kinase dead construct KR, AA G547-L977, D688N) (O75460 547-977 D688N): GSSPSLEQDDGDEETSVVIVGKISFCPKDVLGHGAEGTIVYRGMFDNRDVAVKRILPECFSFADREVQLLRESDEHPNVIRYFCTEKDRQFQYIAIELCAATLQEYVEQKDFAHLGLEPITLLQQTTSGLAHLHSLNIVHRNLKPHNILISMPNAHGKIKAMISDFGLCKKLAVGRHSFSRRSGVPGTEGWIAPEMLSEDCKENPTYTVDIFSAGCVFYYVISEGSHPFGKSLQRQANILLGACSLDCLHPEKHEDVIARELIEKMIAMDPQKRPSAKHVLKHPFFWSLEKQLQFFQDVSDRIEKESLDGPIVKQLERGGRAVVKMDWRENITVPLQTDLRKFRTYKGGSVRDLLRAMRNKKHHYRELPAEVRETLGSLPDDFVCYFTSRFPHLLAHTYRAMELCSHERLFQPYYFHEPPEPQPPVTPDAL
row,Structure (SMILES),IC50
1,"O=S(=O)(Nc1ccc(Oc2ncccc2-c2ccnc(N[C@H]3CCCNC3)n2)c(F)c1F)c1ccccc1 [Compound 218, (S)-N-(2,3-difluoro-4-((3-(2-(piperidin-3-ylamino)pyrimidin-4-yl)pyridin-2-yl)oxy)phenyl)benzenesulfonamide]",16 nM
2,"COc1cccc(S(=O)(=O)Nc2ccc(Oc3ncccc3-c3ccnc(N[C@H]4CCCNC4)n3)c(F)c2F)c1 [Compound 212, (S)-N-(2,3-difluoro-4-((3-(2-(piperidin-3-ylamino)pyrimidin-4-yl)pyridin-2-yl)oxy)phenyl)-3-methoxybenzenesulfonamide]",25 nM
3,"CN1CCC[C@H](Nc2nccc(-c3cccnc3Oc3ccc(NS(=O)(=O)Cc4ccccc4)c(F)c3F)n2)C1 [Compound 170, (S)-N-(2,3-difluoro-4-((3-(2-((1-methylpiperidin-3-yl)amino)pyrimidin-4-yl)pyridin-2-yl)oxy)phenyl)-1-phenylmethanesulfonamide]",11 nM
4,"O=S(=O)(Nc1ccc(Oc2ncccc2-c2ccnc(N[C@H]3CCCNC3)n2)c(F)c1F)c1cccnc1 [Compound 214, (S)-N-(2,3-difluoro-4-((3-(2-(piperidin-3-ylamino)pyrimidin-4-yl)pyridin-2-yl)oxy)phenyl)pyridine-3-sulfonamide]",44 nM
5,"CC(C)(C)CCCS(=O)(=O)Nc1ccc(Oc2ncccc2-c2ccnc(N[C@H]3CCCNC3)n2)c(F)c1F [Compound 230, (S)-N-(2,3-difluoro-4-((3-(2-(piperidin-3-ylamino)pyrimidin-4-yl)pyridin-2-yl)oxy)phenyl)-4,4-dimethylpentane-1-sulfonamide]",14 nM
6,"O=S(=O)(CCC(F)(F)F)Nc1ccc(Oc2ncccc2-c2ccnc(N[C@H]3CCCNC3)n2)cc1F [Compound 105, (S)-3,3,3-trifluoro-N-(2-fluoro-4-((3-(2-(piperidin-3-ylamino)pyrimidin-4-yl)pyridin-2-yl)oxy)phenyl)propane-1-sulfonamide hydrochloride]",27 nM
7,"O=S(=O)(Nc1cccc(Oc2ncccc2-c2ccnc(N[C@H]3CCCNC3)n2)c1)c1ccccc1Cl [Compound 132, (S)-2-Chloro-N-(3-((3-(2-(piperidin-3-ylamino)pyrimidin-4-yl)pyridin-2-yl)oxy)phenyl)benzenesulfonamide hydrochloride]",32 nM
8,"CCC1CCN(c2ccc(Oc3ncccc3-c3ccnc(N[C@H]4CCCNC4)n3)c(F)c2F)C1=O (single isomer, unassigned) [Compound 248]",45 nM
9,"O=S(=O)(Cc1ccccc1)Nc1ccc(Oc2ncccc2-c2ccnc(NC34CNCC3C4)n2)c(F)c1F (single isomer, unassigned) [Compound 186, N-(4-((3-(2-(3-Azabicyclo[3.1.0]hexan-5-ylamino)pyrimidin-4-yl)-2-pyridyl)oxy)-2,3-difluoro-phenyl)-1-phenyl-methanesulfonamide]",20 nM
10,"Cc1cc(NS(=O)(=O)c2ccccc2Cl)ccc1Oc1ncccc1-c1ccnc(N[C@H]2CC[C@H](N)CC2)n1 [Compound 101, N-[4-[[3-[2-[(4-aminocyclohexyl)amino]pyrimidin-4-yl]-2-pyridyl]oxy]-3-methyl-phenyl]-2-chloro-benzenesulfonamide hydrochloride]",13 nM
11,"CC(C)(CC#N)CS(=O)(=O)Nc1ccc(Oc2ncccc2-c2ccnc(N[C@H]3CCCNC3)n2)c(F)c1F [Compound 216, (S)-3-cyano-N-(2,3-difluoro-4-((3-(2-(piperidin-3-ylamino)pyrimidin-4-yl)pyridin-2-yl)oxy)phenyl)-2,2-dimethylpropane-1-sulfonamide]",13 nM
12,"CC(F)C1CNCC(Nc2nccc(-c3cccnc3Oc3cc(F)c(NS(=O)(=O)Cc4ccccc4)c(F)c3F)n2)C1 (single isomer, unassigned) [Compound 346, 1-Phenyl-N-(2,3,6-trifluoro-4-((3-(2-((5-(1-fluoroethyl)piperidin-3-yl)amino)pyrimidin-4-yl)pyridin-2-yl)oxy)phenyl)methanesulfonamide]",72 nM
13,"CC1(CF)CNCC(Nc2nccc(-c3cccnc3Oc3cc(F)c(NS(=O)(=O)Cc4ccccc4)c(F)c3F)n2)C1 (single isomer, unassigned) [Compound 295, 1-Phenyl-N-(2,3,6-trifluoro-4-((3-(2-((5-(fluoromethyl)-5-methylpiperidin-3-yl)amino)pyrimidin-4-yl)pyridin-2-yl)oxy)phenyl)methanesulfonamide]",41 nM

# These reach a lower IC50. Values come first.
row,IC50,Structure (SMILES)
1,0.15 nM,"CN(C)[C@H]1CC[C@H](Nc2nccc(-c3cccnc3Oc3cc(F)c(NS(=O)(=O)Cc4ccccc4)c(F)c3F)n2)CC1 [Compound 272, N-(4-((3-(2-(((1r,4r)-4-(Dimethylamino)cyclohexyl)amino)pyrimidin-4-yl)pyridin-2-yl)oxy)-2,3,6-trifluorophenyl)-1-phenylmethanesulfonamide hydrochloride]"
2,0.2 nM,"O=S(=O)(Cc1ccc(F)cc1)Nc1c(F)cc(Oc2ncccc2-c2ccnc(N[C@@H]3CNC[C@@H](F)C3)n2)c(F)c1F [Compound 372, 1-(4-Fluorophenyl)-N-(2,3,6-trifluoro-4-((3-(2-(((3S,5S)-5-fluoropiperidin-3-yl)amino)pyrimidin-4-yl)pyridin-2-yl)oxy)phenyl)methanesulfonamide]"
3,0.7 nM,"Cc1cccc(CS(=O)(=O)Nc2c(F)cc(Oc3ncccc3-c3ccnc(N[C@@H]4CNC[C@@H](F)C4)n3)c(F)c2F)c1 [Compound 383, 1-m-Tolyl-N-(2,3,6-trifluoro-4-((3-(2-(((3S,5S)-5-fluoropiperidin-3-yl)amino)pyrimidin-4-yl)pyridin-2-yl)oxy)phenyl)methanesulfonamide]"
4,4.6 nM,"O=S(=O)(Cc1ccccc1)Nc1cc(F)c(Oc2ncccc2-c2ccnc(N[C@H]3CCCNC3)n2)c(F)c1F [Compound 156, (S)-1-phenyl-N-(2,3,5-trifluoro-4-((3-(2-(piperidin-3-ylamino)pyrimidin-4-yl)pyridin-2-yl)oxy)phenyl)methanesulfonamide hydrochloride]"
5,0.31 nM,"Cc1cc(Oc2ncccc2-c2ccnc(N[C@@H]3CNC[C@@H](F)C3)n2)c(F)c(F)c1NS(=O)(=O)Cc1ccccc1 [Compound 280, N-(2,3-Difluoro-4-((3-(2-(((3S,5S)-5-fluoropiperidin-3-yl)amino)pyrimidin-4-yl)pyridin-2-yl)oxy)-6-methylphenyl)-1-phenylmethanesulfonamide]"
6,0.19 nM,"CC(C)(F)C1CNCC(Nc2nccc(-c3cccnc3Oc3cc(F)c(NS(=O)(=O)Cc4ccccc4)c(F)c3F)n2)C1 (stereo not drawn) [Compound 333, 1-Phenyl-N-(2,3,6-trifluoro-4-((3-(2-((5-(2-fluoropropan-2-yl)piperidin-3-yl)amino)pyrimidin-4-yl)pyridin-2-yl)oxy)phenyl)methanesulfonamide hydrochloride]"
7,4.7 nM,"C[C@@]1(F)CNC[C@@H](Nc2nccc(-c3cccnc3Oc3cc(F)c(NS(=O)(=O)Cc4ccccc4)c(F)c3F)n2)C1 [Compound 190, 1-Phenyl-N-(2,3,6-trifluoro-4-((3-(2-(((3S,5S)-5-fluoro-5-methyl-3-piperidyl)amino)pyrimidin-4-yl)-2-pyridyl)oxy)phenyl)methanesulfonamide]"
8,0.2 nM,"O=S(=O)(Cc1ccccc1Cl)Nc1c(F)cc(Oc2ncccc2-c2ccnc(N[C@@H]3CNC[C@@H](F)C3)n2)c(F)c1F [Compound 352, 1-(2-Chlorophenyl)-N-[2,3,6-trifluoro-4-[[3-[2-[[(3S,5S)-5-fluoro-3-piperidyl]amino]pyrimidin-4-yl]-2-pyridyl]oxy]phenyl]methanesulfonamide]"
9,0.42 nM,"COCCN(C)[C@H]1CC[C@H](Nc2nccc(-c3cccnc3Oc3cc(F)c(NS(=O)(=O)C4CCCCC4)c(F)c3F)n2)CC1 [Compound 350, N-(2,3,6-Trifluoro-4-((3-(2-(((1r,4r)-4-((2-methoxyethyl)(methyl)amino)cyclohexyl)amino)pyrimidin-4-yl)pyridin-2-yl)oxy)phenyl)cyclohexanesulfonamide]"
10,4.4 nM,"C[C@H]1CNC[C@@H](Nc2nccc(-c3cccnc3Oc3ccc(NS(=O)(=O)Cc4ccccc4)c(F)c3F)n2)C1 [Compound 111, N-(2,3-difluoro-4-((3-(2-(((3S,5R)-5-methylpiperidin-3-yl)amino)pyrimidin-4-yl)pyridin-2-yl)oxy)phenyl)-1-phenylmethanesulfonamide hydrochloride]"
11,0.3 nM,"O=S(=O)(Cc1ccc(Cl)cc1F)Nc1c(F)cc(Oc2ncccc2-c2ccnc(N[C@@H]3CNC[C@@H](F)C3)n2)c(F)c1F [Compound 364, 1-(4-Chloro-2-fluoro-phenyl)-N-[2,3,6-trifluoro-4-[[3-[2-[[(3S,5S)-5-fluoro-3-piperidyl]amino]pyrimidin-4-yl]-2-pyridyl]oxy]phenyl]methanesulfonamide]"
12,0.2 nM,"O=S(=O)(Cc1ccc(Cl)cc1)Nc1c(F)cc(Oc2ncccc2-c2ccnc(N[C@@H]3CNC[C@@H](F)C3)n2)c(F)c1F [Compound 354, 1-(4-Chlorophenyl)-N-[2,3,6-trifluoro-4-[[3-[2-[[(3S,5S)-5-fluoro-3-piperidyl]amino]pyrimidin-4-yl]-2-pyridyl]oxy]phenyl]methanesulfonamide]"
13,0.9 nM,"COc1ccccc1CS(=O)(=O)Nc1ccc(Oc2ncccc2-c2ccnc(N[C@H]3CCCNC3)n2)c(F)c1F [Compound 380, (S)—N-(2,3-Difluoro-4-((3-(2-(piperidin-3-ylamino)pyrimidin-4-yl)pyridin-2-yl)oxy)phenyl)-1-(2-methoxyphenyl)methanesulfonamide]"
14,0.4 nM,"Cc1ccccc1CS(=O)(=O)Nc1c(F)cc(Oc2ncccc2-c2ccnc(N[C@@H]3CNC[C@@](C)(F)C3)n2)c(F)c1F [Compound 290, 1-o-Tolyl-N-(2,3,6-trifluoro-4-((3-(2-(((3S,5S)-5-fluoro-5-methylpiperidin-3-yl)amino)pyrimidin-4-yl)pyridin-2-yl)oxy)phenyl)methanesulfonamide]"
